Assay results as given in patent US11530196B2, “Pyrimidine compound acting on EGFR and ERBB2” (CHINA RESOURCES PHARMACEUTICAL HOLDINGS COMPANY LIMITED, priority 2019, dated 2022).
Where two headings read alike, the source gives them in different places.

Assays:
[1] = target: T1, Wild-type EGFR enzymes (Homo sapiens, UniProt P00533); assay: Kinase assay (HTRF KinEASE TK), EGFR WT; assay type: biochemical; conditions: read-out: Enzyme IC50
T1 construct: purchased Invitrogen PR7295B
Text: (§1) To detect the inhibitory effect of compounds on EGFR WT, EGFR (D770_N771insNPG), ERBB2 (V777_G778ins>CG), EGFR T790M/L858R enzyme activities
(§2) EGFR WT (Invitrogen, Cat. No. PR7295B), EGFR [L858R] (Invitrogen, Cat. No. PR7447A), EGFR [d746-750] (Invitrogen, Cat. No. PV6179), ATP (Sigma, Cat. No. A7699-1G), DMSO (Sigma, Cat. No. D2650), DTT (Sigma, Cat. No. 43815), 384-well plate, compound dilution plate (Greiner, Cat. No. 781280), 384-well plate, test plate (Perkin Elmer, Cat. No. 6007299), HTRF KinEASE TK Kit (Cisbio, Cat. No. 62TK0PEB), magnesium chloride (Sigma, Cat. No. M1028), Orthovanadate (Sigma, Cat. No. 56508), BSA (Sigma, Cat. No. A7030), HEPES (Life technology, Cat. No. 11344-041).
(§3) The final test concentrations of the test compounds ranged from 10 μM to 0.17 nM in 3-fold gradient dilutions at 11 concentrations.
(§4) The preparation of the buffer, 50 mM HEPES (pH 7.5), 0.01% BSA, 5 mM MgCl2, and 0.1 mM Orthovanadate were contained in the buffer. After the preparation of the buffer, the enzyme and substrate were mixed with pre-diluted prepared compounds of different concentrations, and the mixture was placed at room temperature for 15 minutes. […] After the reaction was completed, the antibody was added to the assay, incubated at room temperature for 60 minutes and then detected by Envision (plate reading instrument), and data were collected. […]

[2] = Pharmacokinetic study, single intravenous and oral administration in Beagle dogs; assay type: in vivo; conditions: dog, plasma; for AUC(0-t): read-out: Exposure of AUC0-last
Protocol: The purpose of this experiment was to investigate the pharmacokinetics (PK) of the compounds in different species after single intravenous and single oral administration of the test compounds.
After intravenous or oral administration, blood samples were collected from the animals, and the actual time of blood collection was recorded. After the blood samples were collected, the samples were immediately transferred to the labelled centrifuge tube containing K2-EDTA, and then centrifuged to obtain plasma. Plasma was transferred to pre-cooled centrifuge tubes, quick-frozen in dry ice and stored in an ultra-low temperature refrigerator at −70±10° C. until LC-MS/MS analysis was performed.
The plasma drug concentration data of the compounds were processed using pharmacokinetic software with a non-compartmental model. The peak concentration (Cmax) and time to peak (Tmax), as well as the quantifiable end time were obtained directly from the plasma concentration-time curve. The following pharmacokinetic parameters were calculated using the log-linear trapezoidal method: half-life (T1/2), apparent volume of distribution (Vdss), and clearance (Cl), area under the time-plasma concentration curve from point 0 to the end time point (AUC0-last), and initial concentration (C0).

[3] = target: HER2 exon 20 insertion (V777_G778ins > CG) enzyme (Homo sapiens, UniProt P04626, INS777CG); assay: Kinase assay (HTRF KinEASE TK), HER2 exon 20 insertion; assay type: biochemical
Chain of HER2 exon 20 insertion (V777_G778ins > CG) enzyme (P04626 with tags, fused parts or gaps INS777CG limits assumed): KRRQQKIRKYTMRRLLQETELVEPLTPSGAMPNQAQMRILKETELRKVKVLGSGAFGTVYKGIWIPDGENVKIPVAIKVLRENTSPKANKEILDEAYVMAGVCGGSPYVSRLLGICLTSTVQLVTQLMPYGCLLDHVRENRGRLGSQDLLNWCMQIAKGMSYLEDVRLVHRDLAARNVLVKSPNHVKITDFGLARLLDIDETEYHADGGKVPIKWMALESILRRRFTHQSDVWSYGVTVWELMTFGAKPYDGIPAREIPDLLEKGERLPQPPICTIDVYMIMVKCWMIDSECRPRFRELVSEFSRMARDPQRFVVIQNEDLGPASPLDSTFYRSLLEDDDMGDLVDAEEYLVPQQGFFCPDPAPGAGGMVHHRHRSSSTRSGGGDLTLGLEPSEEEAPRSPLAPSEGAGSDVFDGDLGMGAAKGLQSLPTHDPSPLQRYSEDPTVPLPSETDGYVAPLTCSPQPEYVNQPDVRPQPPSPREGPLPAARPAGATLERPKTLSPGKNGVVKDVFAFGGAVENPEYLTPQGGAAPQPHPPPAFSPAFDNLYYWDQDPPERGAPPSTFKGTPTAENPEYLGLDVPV
Text: as §1, §2, §3, §4

[4] = target: Ba/F3 EGFR-H773_V774insNPH (Homo sapiens, UniProt P00533, DUP771-773, cells depend on it); assay: Anti-proliferation against Ba/F3 exon 20 insertion mutant cells (NPH); assay type: cell-based, mouse; conditions: CTG, 72 hours, read-out: Mutant cells IC50 (anti-proliferation)
Chain of Ba/F3 EGFR-H773_V774insNPH (P00533 with tags, fused parts or gaps DUP771-773): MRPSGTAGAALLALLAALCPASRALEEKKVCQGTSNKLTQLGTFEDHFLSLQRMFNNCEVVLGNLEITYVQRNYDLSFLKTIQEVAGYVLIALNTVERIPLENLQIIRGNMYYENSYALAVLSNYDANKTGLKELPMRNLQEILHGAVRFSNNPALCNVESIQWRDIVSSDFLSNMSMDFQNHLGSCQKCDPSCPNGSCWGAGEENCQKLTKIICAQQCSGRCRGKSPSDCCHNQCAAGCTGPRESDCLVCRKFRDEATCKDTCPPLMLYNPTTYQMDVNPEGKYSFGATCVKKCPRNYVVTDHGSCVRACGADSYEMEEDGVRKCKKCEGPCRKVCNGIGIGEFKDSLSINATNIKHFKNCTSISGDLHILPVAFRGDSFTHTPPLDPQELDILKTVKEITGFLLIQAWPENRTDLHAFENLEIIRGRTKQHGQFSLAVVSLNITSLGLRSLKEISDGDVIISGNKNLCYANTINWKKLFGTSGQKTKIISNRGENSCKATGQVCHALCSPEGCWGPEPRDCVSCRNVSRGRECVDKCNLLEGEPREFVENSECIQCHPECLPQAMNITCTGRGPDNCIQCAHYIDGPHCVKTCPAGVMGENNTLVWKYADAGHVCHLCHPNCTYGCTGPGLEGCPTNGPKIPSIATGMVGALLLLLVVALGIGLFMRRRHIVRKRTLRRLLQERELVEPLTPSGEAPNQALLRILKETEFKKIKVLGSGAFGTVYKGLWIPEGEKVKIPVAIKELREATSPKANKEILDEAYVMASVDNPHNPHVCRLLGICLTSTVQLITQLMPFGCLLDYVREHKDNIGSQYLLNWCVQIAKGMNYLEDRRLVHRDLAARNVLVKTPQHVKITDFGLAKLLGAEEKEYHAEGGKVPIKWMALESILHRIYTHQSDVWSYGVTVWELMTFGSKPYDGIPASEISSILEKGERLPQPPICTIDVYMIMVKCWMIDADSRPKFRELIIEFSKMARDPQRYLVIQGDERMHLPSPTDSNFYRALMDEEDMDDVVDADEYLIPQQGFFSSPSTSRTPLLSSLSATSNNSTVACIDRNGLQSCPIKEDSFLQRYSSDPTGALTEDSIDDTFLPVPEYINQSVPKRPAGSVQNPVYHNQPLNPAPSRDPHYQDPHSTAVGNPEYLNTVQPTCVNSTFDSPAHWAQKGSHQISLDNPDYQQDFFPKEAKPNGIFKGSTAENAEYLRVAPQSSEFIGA
Text: RPMI1640 medium was purchased from Hyclone, FBS fetal bovine serum was purchased from GBICO, and trypsin-EDTA were both purchased from Giboco. DPBS was purchased from Corning, penicillin/streptomycin solution was purchased from Hyclone, and Cell-Titer Glo reagent was purchased from Promega (Cat. No. G7572). Ba/F3 EGFR-D770_N771insSVD, Ba/F3 EGFR-H773_V774insNPH, Ba/F3 EGFR-V769_D770insASV, BaF3 ERBB2 A775_G776 ins YVMA, the cell lines were constructed by Beijing Kang Yuan Bochuang Biotechnology Co., Ltd. Plate reading instrument: Envision (PerkinElmer).
Cells in logarithmic growth phase were harvested and cell counts were performed using a […]. Cell viability was detected by the Taipan Blue rejection assay. The cell concentration was adjusted; the cell suspension was added to a 96-well plate separately. Cells in 96-well plates were incubated overnight at 37° C., 5% CO2, and 95% humidity. […] The cell plate was placed at room temperature to stabilize the cold light signal, and the cold light values were read. The data were analyzed using GraphPad Prism 7.0 software, and a nonlinear S-curve regression was used to fit the data to derive the dose-effect curve from which the IC50 values were calculated. […]

T1 sequence (P00533 25-1210): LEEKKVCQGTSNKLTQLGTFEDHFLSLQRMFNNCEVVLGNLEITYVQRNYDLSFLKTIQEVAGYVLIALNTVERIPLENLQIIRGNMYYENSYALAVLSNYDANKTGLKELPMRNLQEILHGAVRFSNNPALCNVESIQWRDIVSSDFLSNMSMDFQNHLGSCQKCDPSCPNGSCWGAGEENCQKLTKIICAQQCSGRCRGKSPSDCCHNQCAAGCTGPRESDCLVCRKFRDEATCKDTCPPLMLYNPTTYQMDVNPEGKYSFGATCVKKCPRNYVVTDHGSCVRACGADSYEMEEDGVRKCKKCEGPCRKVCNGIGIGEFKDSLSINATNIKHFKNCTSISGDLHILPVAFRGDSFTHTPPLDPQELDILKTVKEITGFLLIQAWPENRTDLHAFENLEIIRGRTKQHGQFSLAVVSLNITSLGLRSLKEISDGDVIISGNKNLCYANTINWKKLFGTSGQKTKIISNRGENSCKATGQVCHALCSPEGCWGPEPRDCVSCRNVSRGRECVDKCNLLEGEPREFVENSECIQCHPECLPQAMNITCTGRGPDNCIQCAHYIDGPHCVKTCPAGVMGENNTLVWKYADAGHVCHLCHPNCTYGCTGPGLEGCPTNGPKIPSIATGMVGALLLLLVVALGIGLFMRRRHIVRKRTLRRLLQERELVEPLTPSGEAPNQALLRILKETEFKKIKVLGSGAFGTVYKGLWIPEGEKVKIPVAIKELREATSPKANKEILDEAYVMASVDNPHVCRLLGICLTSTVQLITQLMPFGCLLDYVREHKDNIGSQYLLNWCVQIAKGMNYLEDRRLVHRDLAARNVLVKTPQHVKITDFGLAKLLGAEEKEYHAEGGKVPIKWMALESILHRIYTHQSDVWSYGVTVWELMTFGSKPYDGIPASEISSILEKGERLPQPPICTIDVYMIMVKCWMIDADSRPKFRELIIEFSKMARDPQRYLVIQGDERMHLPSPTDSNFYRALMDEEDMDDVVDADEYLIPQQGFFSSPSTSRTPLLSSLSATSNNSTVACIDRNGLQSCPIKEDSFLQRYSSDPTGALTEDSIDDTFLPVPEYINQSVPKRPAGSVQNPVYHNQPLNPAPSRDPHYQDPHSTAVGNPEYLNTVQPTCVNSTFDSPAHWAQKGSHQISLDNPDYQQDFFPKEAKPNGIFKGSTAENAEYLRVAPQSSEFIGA

IC50 [1]: 0.39 nM
clearance ([2]; intravenous injection 2 mg/kg): 0.762 L/h/kg
half-life ([2]; intravenous injection 2 mg/kg): 8.79 h
AUC ([2]; intravenous injection 2 mg/kg, read-out: Exposure of AUC): 3.85 µM·h
Vd ([2]; intravenous injection 2 mg/kg, read-out: Vdss): 7.98 L/kg
bioavailability ([2]; oral 10 mg/kg): 53.5%
AUC(0-t) ([2]; oral 10 mg/kg): 10.3 µM·h
bioavailability ([2]; oral 50 mg/kg): 36.6%
AUC(0-t) ([2]; oral 50 mg/kg): 35.3 µM·h
IC50 [3]: 1.86 nM
GI50 [4]: 15 nM
SMILES: C=CC(=O)Nc1cc(Nc2ncc(C(=O)OC(C)C)c(-c3cn(OC)c4ccccc34)n2)c(OC)cc1N(C)CCN(C)C.CS(=O)(=O)O [Compound 1]
